Laboratory results reported in patent US20080031903A1, “METHOD OF TREATING OCULAR INFECTIONS” (priority 2006, published 2008).
Several values for one entry are separate records, joined by “and”; a condition that tells them apart may be missing. Identical values can stand only once. Entries after “also recorded” stand apart in the source; their conditions may differ.

Legend:
Assay type in all cases: in vivo
[1] = system: Ad5 McEwen; experiment: Ad5/NZW rabbit ocular model, Example 3 (Ad-R1)
Procedure: The purpose of this study is to determine the antiviral efficacy of a 100 mg/ml solution of human Intra Venous Immune Globulin (IG) in the Ad5/NZW rabbit ocular model.
Fifteen NZW female rabbits 2-3 lbs were received from Myrtle's Rabbitry, Thompson Station, Tenn. Fifteen rabbits were inoculated in both eyes following general anesthesia with ketamine & xylazine, topical anesthesia with proparacaine, and corneal scarification (12 cross-hatched strokes of a #25 needle) with 50 μl of 3.0×10^7 pfu/ml (1.5×10^6 pfu/eye or 1.5×10^8 vp/eye) of Ad5 McEwen (Stock P3, Feb. 25, 05, 5.3×10^8 pfu/ml). Eyes were closed and gently rubbed for 5 seconds to ensure contact of the virus on all ocular surfaces.
Eyes were cultured for virus after at least 3 hours (Day 0) after infection. Following topical anesthesia with proparacaine, a single cotton-tipped swab was placed into the lower fornix of each eye, rolled over the cornea into the upper fornix to recover adenovirus from the tear film and corneal and conjunctival surfaces. The swabs from each eye were placed individually into tubes containing 1 ml of outgrowth media and were frozen at −70° C. pending plaque assay. On Day 1, rabbits were divided into 3 treatment groups of 5 rabbits each. Two masked solutions were received. One solution contained 100 mg/ml of IG (Gammagard S/D) and one solution contained pharmaceutical grade saline for use as the negative control. The positive antiviral control, 0.5% cidofovir was not masked because of the differences in treatment regimen. The solutions were stored at 4° C. until and during use.
Drops were administered with at least a 1 hour interval between drops. All eyes from all groups were cultured for virus on days 1, 3, 4, 5, 7, 9, 11, and 14 at least one hour after the final doses of the treatments described above. At various times during the course of the experiment, Ad5 titers were determined on A549 cell monolayers using a standard plaque assay. The ocular cultures to be titered were thawed, diluted (1:10) and inoculated onto A549 monolayers. The virus was adsorbed for 3 hours. Following adsorption, 1 ml of media plus 0.5% methylcellulose was added to each well, and the plates were incubated at 37° C. in a 5% CO2-water vapor atmosphere. After 7 days incubation, the cells were stained with 0.5% gentian violet, and the number of plaques were counted under a dissecting microscope (25×). The viral titers were then calculated, and expressed as plaque-forming units per milliliter (pfu/ml).
Analysis of Results: Data were analyzed statistically using True Epistat and/or Minitab statistical software. Outcome measures included: Ad5-Positive Cultures per Total (Overall [Days 1-14]; Early Phase of Infection [Days 1-5]; Late Phase of Infection [Days 7-14]), Daily Viral Titers, Mean Viral Titer (Early Phase of Infection [Days 1-5]; Late Phase of Infection [Days 7-14]), and Duration of Shedding. Significance was established at the p≦0.05 confidence level.
Duration of viral shedding is shown in Table 8 and was statistically analyzed. The duration of viral shedding in IG treated animals was 5.4 days (standard deviation of 0.84 days). In the Cidofovir treated animals, the duration of viral shedding was 5.0 (SD=1.25 days) while it was longer in the normal saline treated group: 7.2 days (SD=1.14 days). The significant finding is represented graphically in FIG. 8. In this analysis, IG was similar to Cidofovir in reducing the duration of viral shedding.

[2] = system: Ad5; experiment: Ad5/NZW rabbit ocular model, combined analysis of Examples 3 and 5
Text: The following summarizes the in vivo studies provided in Examples 3 and 5. Data from the two studies were combined, analyzed by Minitab statistical software using Analysis of Variance (ANOVA), and X^2 analyses. Significance was established at the p<0.05 confidence.
The daily reduction in percent Ad5 positive cultures per total for all treatment groups is presented graphically in FIG. 4.
The mean combined Ad5 ocular titers represent a global measure of adenovirus replication during the early and late phases of infection. These were determined by calculating the mean and standard deviation of all ocular cultures from each treatment group during the early and late phases (n=80 for all groups).
The mean duration of shedding was estimated by determining the last day on which adenovirus positive cultures were obtained and calculating the mean and standard deviation.

[3] = system: Ad5; experiment: as above; conditions: n=20 eyes per group, FIG. 12
[4] = Days 1-5, Early Phase of Infection
[5] = Days 7-14, Late Phase of Infection

Nc1ccn(C[C@@H](CO)OCP(=O)(O)O)c(=O)n1 [0.5% Cidofovir, Cidofovir]
Daily Ad5 ocular titer, Median ([1]; D0): 2350 pfu/ml | Daily Ad5 ocular titer, TrMean ([1]; D0): 2988 pfu/ml | Daily Ad5 ocular titer, Mean ([1]; D0, N 10 eyes): 3214 pfu/ml | Ad5 ocular viral titer, individual eye ([1]; D 0, after infection, before treatment): 2450 pfu/ml and 1950 pfu/ml and 4250 pfu/ml and 1100 pfu/ml and 2250 pfu/ml and 6650 pfu/ml and 7200 pfu/ml and 3100 pfu/ml and 2150 pfu/ml and 1040 pfu/ml | Ad5 ocular viral titer, individual eye ([1]; D 1): 450 pfu/ml (2×) and 475 pfu/ml and 1000 pfu/ml and 5 pfu/ml and 550 pfu/ml (2×) and 1550 pfu/ml and 1800 pfu/ml and 330 pfu/ml | Daily Ad5 ocular titer, Mean ([1]; D 1): 716 pfu/ml | Daily Ad5 ocular titer, Median ([1]; D 1): 512 pfu/ml | Daily Ad5 ocular titer, TrMean ([1]; D 1): 669 pfu/ml | Ad5 ocular viral titer, individual eye ([1]; D 3): 4250 pfu/ml and 3800 pfu/ml and 2700 pfu/ml and 130 pfu/ml and 9350 pfu/ml and 8200 pfu/ml and 9300 pfu/ml and 100 pfu/ml and 350 pfu/ml and 210 pfu/ml | Daily Ad5 ocular titer, Mean ([1]; D 3): 3839 pfu/ml | Daily Ad5 ocular titer, Median ([1]; D 3): 3250 pfu/ml | Daily Ad5 ocular titer, TrMean ([1]; D 3): 3617 pfu/ml | Ad5 ocular viral titer, individual eye ([1]; D 4): 650 pfu/ml and 400 pfu/ml and 6700 pfu/ml and 1150 pfu/ml and 4700 pfu/ml and 2350 pfu/ml and 1800 pfu/ml and 25 pfu/ml and 0 pfu/ml and 80 pfu/ml | Daily Ad5 ocular titer, Mean ([1]; D 4): 1785 pfu/ml | Daily Ad5 ocular titer, Median ([1]; D 4): 900 pfu/ml | Daily Ad5 ocular titer, TrMean ([1]; D 4): 1394 pfu/ml | Ad5 ocular viral titer, individual eye ([1]; D 5): 550 pfu/ml and 10 pfu/ml and 1550 pfu/ml and 0 pfu/ml (3×) and 400 pfu/ml and 1400 pfu/ml and 1100 pfu/ml and 5 pfu/ml | Daily Ad5 ocular titer, Mean ([1]; D 5): 501 pfu/ml | Daily Ad5 ocular titer, Median ([1]; D 5): 205 pfu/ml | Daily Ad5 ocular titer, TrMean ([1]; D 5): 433 pfu/ml | Ad5 ocular viral titer, individual eye ([1]; D 7): 0 pfu/ml (8×) and 5 pfu/ml and 15 pfu/ml | Daily Ad5 ocular titer, Mean ([1]; D 7): 2.00 pfu/ml | Daily Ad5 ocular titer, Median ([1]; D 7): 0.00 pfu/ml | Daily Ad5 ocular titer, TrMean ([1]; D 7): 0.62 pfu/ml | Ad5 ocular viral titer, individual eye ([1]; D 9): 0 pfu/ml | Daily Ad5 ocular titer, Mean ([1]; D 9): 0.00000 pfu/ml | Daily Ad5 ocular titer, Median ([1]; D 9): 0.00000 pfu/ml | Daily Ad5 ocular titer, TrMean ([1]; D 9): 0.00000 pfu/ml | Ad5 ocular viral titer, individual eye ([1]; D 11): 0 pfu/ml | Daily Ad5 ocular titer, Mean ([1]; D 11): 0.00000 pfu/ml | Daily Ad5 ocular titer, Median ([1]; D 11): 0.00000 pfu/ml | Daily Ad5 ocular titer, TrMean ([1]; D 11): 0.00000 pfu/ml | Ad5 ocular viral titer, individual eye ([1]; D 14): 0 pfu/ml | Daily Ad5 ocular titer, Mean ([1]; D 14): 0.00000 pfu/ml | Daily Ad5 ocular titer, Median ([1]; D 14): 0.00000 pfu/ml | Daily Ad5 ocular titer, TrMean ([1]; D 14): 0.00000 pfu/ml | Positive Cultures per Total ([1]; Day 0, before treatment): 10/10 | Positive Cultures per Total, percent ([1]; Day 0, before treatment): 100% | Positive Cultures per Total ([1]; Day 1): 10/10 | Positive Cultures per Total, percent ([1]; Day 1): 100% | Positive Cultures per Total ([1]; Day 3): 10/10 | Positive Cultures per Total, percent ([1]; Day 3): 100% | Positive Cultures per Total ([1]; Day 4): 9/10 | Positive Cultures per Total, percent ([1]; Day 4): 90% | Positive Cultures per Total ([1]; Day 5): 7/10 | Positive Cultures per Total, percent ([1]; Day 5): 70% | Positive Cultures per Total ([1]; Day 7): 2/10 | Positive Cultures per Total, percent ([1]; Day 7): 20% | Positive Cultures per Total ([1]; Day 9): 0/10 | Positive Cultures per Total, percent ([1]; Day 9): 0% | Positive Cultures per Total ([1]; Day 11): 0/10 | Positive Cultures per Total, percent ([1]; Day 11): 0% | Positive Cultures per Total ([1]; Day 14): 0/10 | Positive Cultures per Total, percent ([1]; Day 14): 0% | Positive Cultures per Total, Total [1, 4]: 36/40 | Positive Cultures per Total, Total (%) [1, 4]: 90% | Positive Cultures per Total, Total ([1]; Days 1-14): 38/80 | Positive Cultures per Total, Total (%) ([1]; Days 1-14): 47.5% | Positive Cultures per Total, Total (%) ([1]; Days 1-14, listed as Cidofovir): 47.5% | Positive Cultures per Total, Total [1, 5]: 2/40 | Positive Cultures per Total, Total (%) [1, 5]: 5% | Positive Cultures per Total, Total (%) ([1]; Days 7-14, Late Phase of Infection, listed as Cidofovir): 5% | Mean Combined Ocular Titers Days 7-14, comparison ([1]; Late Phase): significantly lower Mean Combined Ocular Titers Days 7-14 compared with NPR | Positive Cultures per Total Days 7-14, comparison ([1]; Late Phase): significantly fewer Positive Cultures per Total Days 7-14 compared with NPR | Antiviral efficacy, conclusion ([1]; compared to Saline control): demonstrated its proven antiviral efficacy | Mean Daily Ocular Titers, statistical comparison ([1]; days as stated): significantly lower titers on Days 1 and 7 compared with NPR | Duration of Shedding, individual eye ([1]; final day with positive Ad5 culture, listed as CDV): 5 days (5×) and 4 days (2×) and 7 days (2×) and 3 days | Duration of viral shedding, group mean ([1]; mean of 10 eyes): 5.0 days | Mean Duration of Shedding, comparison ([1]; rabbit, in vivo): significantly shorter durations of shedding compared with the NPR | Adenoviral Positive Culture/total, Early Phase ([2]; Days 1-5): 72/80 | Adenoviral Positive Culture/total, Early Phase, percent ([2]; Days 1-5): 90.0% | Mean Combined Ad5 titer, Early Phase, Mean ± Sd ([2]; Days 1-5, n = 80): 1.4 ± 2.1 × 10^3 pfu/ml | Adenoviral Positive Culture/total, Overall ([2]; Days 1-14): 78/160 | Adenoviral Positive Culture/total, Overall, percent ([2]; Days 1-14): 48.75% | Adenoviral Positive Culture/total, Late Phase ([2]; Days 7-14): 6/80 | Adenoviral Positive Culture/total, Late Phase, percent ([2]; Days 7-14): 7.5% | Mean Combined Ad5 titer, Late Phase, Mean ± Sd ([2]; Days 7-14, n = 80): 0.8 ± 0.4 × 10^0 pfu/ml | Duration of Ad5 Shedding, Mean ± Sd ([2]; n = 20): 5.3 ± 1.3 days | Antiviral activity, overall comparison ([2]; rabbit, in vivo): equivalent antiviral inhibitory activity | Duration of shedding, comparison ([2]; rabbit, in vivo): significantly decreased the duration of shedding compared with the saline control; also recorded: significantly decreased the Mean Duration of shedding compared with IG | Daily Ad5 positive cultures per total, comparison (words) [3]: significantly fewer Ad5 positive cultures per total compared with the Saline control on Days 7 and 9 | Daily Ad5 positive cultures per total, comparison (words) ([3]; listed as cidofovir): significant decreases in the number of Ad5 positive cultures per total on Days 7 and 9 compared with the saline treated eyes
